Where “and” joins values, the source holds several entries; their conditions need not be identical. Equal entries are not always repeated.
What was measured:
HBV = conditions: cited from earlier work
[1] = tested on: HBV surface antigen (HBsAg) of HBV-transfected HepG2.2.15 cell line; test: Inhibition of HBsAg secretion in culture supernatant of HepG2.2.15 cells (ELISA), with MTT cytotoxicity for therapeutic index; type: cell-based, Hepatitis B virus
Procedure: HepG2.2.15 cell line, stably transfected with HBV-DNA, was used to evaluate the inhibition of the compounds against the HBV surface antigen (HBsAg) level in the culture supernatant of HepG2.2.15 cell. HepG2.2.15 cells were seeded at a density of 1.25×10^4 cells/well into 48-well plates, 0.5 ml RPMI1640 medium containing 10% fetal bovine serum, 100 unit/ml penicillin, 100 μg/ml streptomycin and 380 μg/ml geneticin (G418) was added to the well. Cells were incubated at 37° C. in a humidified incubator of 5% CO2 for 24 h, and then the culture medium was replaced by fresh medium containing Lamivudine (the positive drug) and compounds of this invention at five concentrations. The culture medium was replaced by a fresh one after 3 days and 6 days incubation, respectively. On d9, the supernatant was collected to determine the HBsAg level and the cells were used to assay the viability by MTT method.
Add 100 μl PBS solution containing 0.5 mg/ml MTT [3-(4,5-dimethylthiazol-2-yl)-2,5diphenyltetrazolium bromide] to the well after removing the supernatant, incubate at 37° C. for 4 h, remove the medium, add […] of DMSO to each well and the plates were shaken for 10 min. The optical density value (A) of each well was read using a PowerWaveX Microplate Scanning Spectrophotometer (Bio-tek Instruments, Inc) at 490 nm. Cells survival rate was calculated. […]

Compound	Anti-HBV effect in vitro (HBV)	Therapeutic index (TI = TC50/IC50) ([1]; HepG2.2.15 cells, treated for 9d, TC50 by MTT)	IC50 ([1]; Hepatitis B virus, HepG2.2.15, 216 h, read-out: IC50 against HBsAg secretion)
C=C1CCC2C(C)(COC(=O)c3cccnc3)C(OC(=O)c3cccnc3)CCC2(C)C1C=CC1=CC(=Cc2ccc(Cl)cc2)OC1=O (stereo not drawn) [15-p-chlorobenzylidene-14-deoxy-11, 12-didehydro-3, 19-dinicotinate-andrographolide]	anti-HBV effect in vitro	–	–
Nc1ccn([C@@H]2CS[C@H](CO)O2)c(=O)n1 [Lamivudine]	–	greater than 2	~10 µg/mL and ~43.7 µM

Source: patent US20140187627A1, “USES OF C15-SUBSTITUTED ANDROGRAPHOLIDE DERIVATIVES IN THE PREPARATION OF ANTI-HEPATITIS B VIRUS MEDICAMENT” (ZHENGZHOU UNIVERSITY, priority 2011, published 2014)
